Laboratory results published in the supplement of paper PMC5908809.

How the values were obtained:
[1] = system: normal NK cells expanded with K562-aAPC; test: percent inhibition of viability; higher = more inhibition; details: 72 h, IL-2 2.5 ng/mL
Protocol: (§1)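 Drug sensitivity and resistance testing on K562-aAPC-expanded normal NK cells: 5 concentrations (10-fold steps over a 10,000-fold range), 72 h at 37 °C, viability by CellTiter-Glo normalised to DMSO and benzethonium chloride controls; DSS from the fitted curve.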

DERL-7 (IL-2 2.5 ng/mL) [2] = test: as above; details: 72 h
IMC-1 (IL-2 20 ng/mL) [3] = test: as above; details: 72 h
KAI3 (IL-2 2.5 ng/mL) [4] = test: as above; details: 72 h
KHYG-1 (IL-2 2.5 ng/mL) [5] = test: as above; details: 72 h
NK-92 (IL-2 2.5 ng/mL) [6] = test: as above; details: 72 h
NK-YS (IL-2 2.5 ng/mL) [7] = test: as above; details: 72 h
NKL (IL-2 2.5 ng/mL) [8] = test: as above; details: 72 h
SNK-6 (IL-2 2.5 ng/mL) [9] = test: as above; details: 72 h
YT (IL-2 2.5 ng/mL) [10] = test: as above; details: 72 h
[11] = system: normal primary NK cells, pool 1 (3 donors) (IL-2 2.5 ng/mL); test: as above; details: 72 h
[12] = system: normal primary NK cells, pool 1 (3 donors), resting (IL-2 0 ng/mL); test: as above; details: 72 h
[13] = system: normal primary NK cells, pool 2 (3 donors) (IL-2 2.5 ng/mL); test: as above; details: 72 h
[14] = system: normal primary NK cells, pool 3 (3 donors) (IL-2 2.5 ng/mL); test: as above; details: 72 h
[15] = system: normal NK cells expanded with K562-aAPC; test: drug sensitivity score (DSS) (DSS units); higher = more sensitive; extreme values may be limits of the assay; details: 72 h; IL-2 2.5 ng/mL
Protocol: as §1

DERL-7 (IL-2 2.5 ng/mL) [16] = test: as above; details: 72 h
IMC-1 (IL-2 20 ng/mL) [17] = test: as above; details: 72 h
KAI3 (IL-2 2.5 ng/mL) [18] = test: as above; details: 72 h
KHYG-1 (IL-2 2.5 ng/mL) [19] = test: as above; details: 72 h
NK-92 (IL-2 2.5 ng/mL) [20] = test: as above; details: 72 h
NK-YS (IL-2 2.5 ng/mL) [21] = test: as above; details: 72 h
NKL (IL-2 2.5 ng/mL) [22] = test: as above; details: 72 h
SNK-6 (IL-2 2.5 ng/mL) [23] = test: as above; details: 72 h
YT (IL-2 2.5 ng/mL) [24] = test: as above; details: 72 h
[25] = system: normal primary NK cells, pool 1 (3 donors) (IL-2 2.5 ng/mL); test: as above; details: 72 h
[26] = system: normal primary NK cells, pool 1 (3 donors), resting (IL-2 0 ng/mL); test: as above; details: 72 h
[27] = system: normal primary NK cells, pool 2 (3 donors) (IL-2 2.5 ng/mL); test: as above; details: 72 h
[28] = system: normal primary NK cells, pool 3 (3 donors) (IL-2 2.5 ng/mL); test: as above; details: 72 h

C#Cc1cccc(Nc2ncnc3cc4c(cc23)OCCOCCOCCO4)c1 [Icotinib] (max concentration tested 10000 nM)
percent inhibition of viability [%]
Details | 1 nM | 10 nM | 100 nM | 1000 nM | 10000 nM
DERL-7 (IL-2 2.5 ng/mL) [2] | -3.69 | 4.28 | 2.21 | -3.13 | 21.1
IMC-1 (IL-2 20 ng/mL) [3] | -2.8 | -2.04 | 2.45 | 1.87 | 17.3
KAI3 (IL-2 2.5 ng/mL) [4] | 0.88 | -3.16 | 3.15 | -4.22 | 15.3
KHYG-1 (IL-2 2.5 ng/mL) [5] | 2.44 | 3.1 | 7.32 | 5.9 | 20.9
NK-92 (IL-2 2.5 ng/mL) [6] | -11.7 | -6.9 | 8.46 | 9.17 | 60.1
NK-YS (IL-2 2.5 ng/mL) [7] | 1.39 | -0.84 | 6.96 | 1.74 | 17.6
NKL (IL-2 2.5 ng/mL) [8] | -8.58 | 1.33 | -2.78 | -2.73 | 7.37
SNK-6 (IL-2 2.5 ng/mL) [9] | 8.75 | 4.17 | -5.78 | 8.65 | 12.1
YT (IL-2 2.5 ng/mL) [10] | -0.54 | 0.7 | 2.3 | -0.04 | 20.5
[1] | -2.8 | 5.15 | 5.26 | 7.7 | 24.2
[11] | 2.64 | -2.92 | -2.29 | -5.75 | 8.93
[12] | 3.19 | -9.84 | 4.39 | -8.23 | 35.6
[13] | -5.53 | 5.07 | 5.9 | -0.93 | 18.9
[14] | -12.7 | -5.94 | 3.15 | -6.39 | -5.24

Details | drug sensitivity score
DERL-7 (IL-2 2.5 ng/mL) [16] | 0.52
IMC-1 (IL-2 20 ng/mL) [17] | 0.61
KAI3 (IL-2 2.5 ng/mL) [18] | 0.15
KHYG-1 (IL-2 2.5 ng/mL) [19] | 0.85
NK-92 (IL-2 2.5 ng/mL) [20] | 4.82
NK-YS (IL-2 2.5 ng/mL) [21] | 0.62
NKL (IL-2 2.5 ng/mL) [22] | 0
SNK-6 (IL-2 2.5 ng/mL) [23] | 0.39
YT (IL-2 2.5 ng/mL) [24] | 0.63
[15] | 1.38
[25] | 0
[26] | 1.28
[27] | 0.45
[28] | 0
